Results taken from ChEMBL document CHEMBL5727461, “Heterocyclic compounds and uses thereof” (2019).

Biological target: Bromodomain-containing protein 4 (Homo sapiens, UniProt O60885)
Assay: Alphascreen Binding Assay: Binding of compounds of formula (I) with bromodomain 2, 3 4 was assessed using Alphascreen binding assay. The inhibition of the interaction between bromodomain and its acetylated target protein (Filippakopoulos P et al. 2012) was measured quantitatively using recombinant BRD proteins, an acetylated Histone 4 peptide and AlphaScreen technology. In absence of inhibition the BRD protein bound to AlphaScreen nickel chelate acceptor beads can interact with the acetylated Histone 4 peptide which is immobilized by the AlphaScreen Streptavidin coated beads. This interaction brings donor and acceptor beads in proximity. The close proximity allows the singlet oxygen produced by laser excitation of the donor beads to reach the acceptor beads and generate a luminescence signal. BRD inhibitors result in a decrease in the proximity signal through an inhibition of the BRD-acetylated peptide interaction.Recombinant human bromodomains containing the N-terminal bromodomain (BRD2-BD1 (71-194), BRD3-BD1 (24-144) and BRD4-BD1 (44-164)) or dual bromodomains (BRD4-BD12 (1-477), BRD4-BD12 (1-472)) were prepared and purified as described in protein expression and purification session.

**Q.** With `Cc1noc(C)c1-c1cnc2c(c1)c(CC1CCN(S(=O)(=O)c3ccccc3)CC1)cn2C` as the molecule, how does the IC50 read?
**A.** The IC50 was under 1000 nM.
